Experimental data taken from patent KR20180000079A, “Kahweol을 포함하는 항비만 조성물” (경북대학교 산학협력단, priority 2016, dated 2018).

Legend:
Format in all cases: cell-based, mouse
C/EBPα [1] = assay: RT-PCR, C/EBPα mRNA expression in 3T3-L1 cells; conditions: 40 μM
PPARγ [2] = assay: Western blot, PPARγ protein expression in 3T3-L1 adipocytes; conditions: 40 μM
PPARγ [3] = assay: RT-PCR, PPARγ mRNA expression in 3T3-L1 cells; conditions: 40 μM
[4] = tested on: 3T3-L1 preadipocytes [3T3-L1 전구 지방세포]; assay: MTT assay, cytotoxicity in 3T3-L1 preadipocytes; conditions: 3T3-L1 cells, 4 or 40 μM, 24 or 48 h
adiponectin [아디포넥틴] [5] = assay: Western blot, adiponectin protein expression in 3T3-L1 adipocytes; conditions: 40 μM
C/EBPα [6] = assay: Western blot, C/EBPα protein expression in 3T3-L1 adipocytes; conditions: 40 μM
[7] = tested on: 3T3-L1 adipocytes [3T3-L1 지방세포]; assay: Oil Red O staining: differentiation and lipid accumulation in 3T3-L1 cells
adiponectin [아디포넥틴] [8] = assay: RT-PCR, adiponectin mRNA expression in 3T3-L1 cells; conditions: 40 μM
[9] = tested on: 3T3-L1 adipocytes [3T3-L1 지방세포]; assay: Triglyceride (TG) quantification in 3T3-L1 cells (colorimetric kit)

Q: How did the “C/EBPα mRNA level” value (C/EBPα [1]) turn out when `C[C@@]12C=Cc3occc3[C@H]1CC[C@@]13C[C@@H](CC[C@H]12)[C@@](O)(CO)C3` [Kahweol] was run?
A: 현저히 감소

Q: And the PPARγ protein expression (PPARγ [2])?
A: 억제됨

Q: What about the “PPARγ mRNA level” value (PPARγ [3]) of the same molecule?
A: 현저히 감소

Q: What about the cytotoxic effect [4] of the same molecule?
A: 세포 독성 효과를 보이지 않았다

Q: What about the adiponectin protein expression (adiponectin [아디포넥틴] [5]) of the same molecule?
A: 억제됨

Q: And the C/EBPα protein expression (C/EBPα [6])?
A: 억제됨

Q: What about the “differentiation of 3T3-L1 cells” value ([7]; 40 μM, 8 days) of the same molecule?
A: 분화가 억제됨

Q: And the cell morphology ([7]; 40 μM, 8 days, similar to preadipocytes (Fig. 3A))?
A: 소형 스핀들-형상 형태

Q: And the “lipid accumulation inhibitory activity compared with positive control” value ([7]; 3T3-L1 cells, 40 μM)?
A: 양성 대조군 보다 우수한

Q: What about the intracellular lipid accumulation ([7]; 3T3-L1 cells, Oil Red O) of the same molecule?
A: 억제함

Q: What about the “adiponectin mRNA level” value (adiponectin [아디포넥틴] [8]) of the same molecule?
A: 감소

Q: What about the TG formation [9] of the same molecule?
A: 억제함

Q: And the “TG formation inhibitory activity compared with positive control” value ([9]; 40 μM)?
A: 양성 대조군 보다 우수한

Q: What about the inhibition at 40 µM ([9]; Mus musculus, 40 μM, read-out: decrease of intracellular TG level) of the same molecule?
A: 43.3%
